Experimental data: US20090023685A1, “Nebulized or Sprayed Cidofovir for Recurrent Respiratory Papillomatosis” (priority 2007, published 2009)
“Also recorded” adds a separate entry of the source.

System: Recurrent Respiratory Papillomatosis due to Human Papillomavirus subtype 6 (HPV-6)
Test: Case report: systemic, topical and nebulized cidofovir in a young child with recurrent respiratory papillomatosis
Format: in vivo
Procedure: We decided that applying cidofovir using a flexible bronchoscope and a cytology brush soaked in cidofovir would be a reasonable method to attempt to deliver the drug to the papillomas. We used the intravenous form of the drug, diluted to the concentration used in the gel based formula.
Therefore, we made a 4 ml solution at the same concentration we were using for the topical application.
Therefore, we elected to nebulize the drug (Cidofovir 10 mg/ml in NS, 4 cc, 3 times/week).
Background: a person is an ex-prem (24 week GA) born to a mom who had antenatal bleeding and had been given steroids prior to delivery. Their postnatal course was complicated by Respiratory distress syndrome (mechanical ventilation for 52 days, CPAP for 28 days and O2 for 30 days), a patent ductus arteriousus (indomethacin & surgical ligation), hemodynamic instability necessitating inotropic support and renal failure. Following discharge home a person had severe GERD, (L) inguinal hernia repair and was described to have colic.
Presentation: At 10½ months of age, they presented to the Children's Hospital Emergency Room with increasing difficulties breathing. […] They were admitted to hospital and subsequently transferred to the Pediatric intensive care unit. They were diagnosed with upper airway obstruction and treated with Heliox (80:20) and nebulized racemic epinephrine. […] They underwent tracheostomy.
Initial management: Suspension laryngoscopy with CO2 laser for debulking papillomas was performed ×6 (locally) and ×2 (larger tertiary centre) (FIG. 1b). […] Palliation was discussed with the […].
Adjuvant therapy: Medical management was initiated 6 months into treatment.
Topical and nebulized cidofovir: The patient was started on topically applied cidofovir via flexible bronchoscopy q2 weeks in addition to continuing the intravenous (systemic) dose. A cytology brush was soaked in cidofovir 10 mg/ml solution and advanced via the bronchoscope to the lower airway papillomas (FIG. 2a). We elected to start nebulized cidofovir to reduce the frequency of Bronchoscopic procedures and to intensify treatment. […] After 6 months of nebulized cidofovir, the dose was reduced to 2× weekly.
Current status: A large papilloma was surgically debulked (microdebridment) and topical cidofovir was topically applied to the base of the lesion. […] undergoes surveillance bronchoscopy q3 months and continues on nebulized cidofovir 5 mg/ml, 4 cc 2× weekly (FIGS. 2c and 3b).

## Nc1ccn(C[C@@H](CO)OCP(=O)(O)O)c(=O)n1 [cidofovir]
After nebulized cidofovir, surgical debulking of a large papilloma and topical cidofovir to its base
  current disease status: papilloma free; also recorded: Her disease has remitted
Intravenous (systemic) cidofovir 4.1 mg/kg/dose every 4 weeks
  effect on papillomatosis: without effect
Nebulized cidofovir
  effect in the lung (CT scans): improvement in the lung
Nebulized cidofovir 10 mg/ml, 4 ml (total dose 40 mg), 3× weekly
  complications / side effects: bleeding (dose dependent & related to infection with bacteria; also recorded: cough
Nebulized cidofovir 10 mg/ml, 4 ml (total dose 40 mg), 3× weekly, listed as Cidofovir
  complications / side effects: hemoptysis; also recorded: bleeding and protracted airways inflammation
Nebulized cidofovir after the dose was reduced (5 mg/ml; later 2 times/week)
  complications / side effects: resolution of the complications
Nebulized cidofovir after the dose was reduced (5 mg/ml; later 2 times/week), listed as Cidofovir
  complications / side effects: without complications
Nebulized cidofovir in saline, 4 ml, 2-3 times/week
  effect on lower airway papillomas: worked well; also recorded: reduction of the burden of the papillomas
Nebulized cidofovir in saline, 4 ml, 2-3 times/week, listed as Cidofovir
  effect on lower airway papillomas: lower airway lesions have visually disappeared
Nebulized cidofovir, droplet size 2-4 microns
  papillomas in the main airway (trachea): remained large
Systemic cidofovir q2 weeks plus Interferon α2b 5 MU/m^2 3× weekly, listed as Cidofovir
  course of disease: did not halt the progression of the disease
Systemic cidofovir stepped down to q3 weeks (with Interferon α2b)
  course of lesions: the lesions worsened
Topical cidofovir (10 mg/ml, thickened with sterile glycerine) applied by cytology brush via flexible bronchoscopy every 2 weeks
  effect on lower airway papillomas: worked to reduce the size of the papillomas
Topical cidofovir (10 mg/ml, thickened with sterile glycerine) applied by cytology brush via flexible bronchoscopy every 2 weeks, listed as Cidofovir
  effect on lower airway papillomas: The lesions regressed
